“And” between values parts separate entries of the source, which are not always exact repeats. Identical values can stand only once.
Experiments:
[1] = system: patient with sleeping disorder; experiment: Example 2: patient with sleeping disorder and constipation, oral squalamine, sleep diary and I-button; assay type: in vivo, human
Method: The patient had very significant delay in sleep onset, fragmented sleep, thrashing of arms and legs (RBD) and daytime somnolence. On polysomnography, they had apneic spells up to 17 seconds in duration with an oxygen desaturation as low as 93%. The patient slept no more than 3-4 hours, awakened 3-4 times, and each awakening lasted 30-60 minutes. Medications included clonazepam and laxatives.
Clonazepam and laxatives were discontinued and they were started on 100 mg of squalamine every other day at bedtime. This regimen had no effect on their sleep or constipation. […] They were then switched to 150 mg daily taken in the morning.
The patient's skin temperature was also monitored for fluctuations at the wrist using a temperature sensor (I-button) mounted on a wrist-band. Skin temperature at the wrist increases from about 30° C. during the day to 36° C. at night in normal individuals. This diurnal variation of skin temperature correlates well with sleep-wake cycles. When it reaches 34° C., subjects fall asleep; during the night, if it falls below 34° C., subjects awaken. During the day, skin temperature is below 30° C. and subjects remain awake.
Once the patient's Circadian rhythm was restored, the patient started sleeping better at night and stopped falling asleep during the day.

[2] = system: Intrinsic primary afferent neurons (IPAN) of the jejunum; experiment: IPAN patch clamp, jejunum with intact luminal epithelium; parameters: species or system mouse; settings: lumen perfused with 30 μM squalamine; 5.5 before
Method: Squalamine evoked bursts of action potential lasting for 10 to 30 min after application of a brief (20 ms) 50 μL puff of squalamine onto the epithelium.
To determine the mechanism by which squalamine stimulated intestinal motility, electrophysiological studies were conducted on single neurons within the colon or jejunum of WT mice, using published methods. Intrinsic primary afferent neurons (IPAN) of the jejunum were patch clamped from the adventitial surface, while the lumen of the jejunum was perfused with either Krebs's buffer or buffer containing 30 μM squalamine. The IPANs are multipolar neurons that receive sensory information from the lumen and then communicate with other divisions within the ENS to influence peristalsis as well as direct information rostrally.
In this experiment IPAN excitability was measured by stimulating the neuron with a single standard pulse, and counting the number of subsequent spontaneous discharges.

[3] = system: vagal afferent fibers; experiment: Multiunit firing of a jejunal branch of the vagus (mesenteric nerve); parameters: species or system mouse; settings: luminal squalamine
Method: Squalamine was applied into the lumen by gravity feed 11 min after beginning the recording. […] The Control represents background discharge before applying squalamine, and the Peak gives the average firing frequency during a 3 min period at the peak of the response.
To determine whether the electrical activity stimulated by the luminal application of squalamine was principally contained within the ENS of the intestine, or whether it communicated information rostrally to the CNS, a further experiment was designed in which multiunit fiber firing rates were measured from a single jejunal branch of the vagus. Squalamine was introduced 11 minutes after recordings were begun. Vagal afferent firing frequency increased almost immediately thereafter to 3 fold the initial rate within a few minutes.

[4] = Solubility in water; assay type: physicochemical
[5] = system: patients with PD and constipation; experiment: Phase 2 trial Stage 2: adverse events; settings: for Common adverse events by dose: Dizziness: lightheadedness included
Method: In Stage 2, 34 patients were evaluated. […] This dose was then maintained (“fixed dose”) for an additional 3-5 days. After the “fixed dose”, these patients were randomly assigned to either continued treatment at that dose or to a matching placebo, for an additional 4-6 days prior to a 2-week wash-out.
A second cohort of 19 patients received squalamine (ENT-01) escalating from 100 mg/day to a maximum of 250 mg/day without subsequent randomization to squalamine (ENT-01) or placebo. Criteria for dose selection and efficacy were identical to those used in the previous cohort.
Adverse events were coded using the current version of MedDRA. Severity of AEs were assessed by investigators according to CTCAE (v4.03): Grade 1 is labeled as Mild, Grade 2 as Moderate, and Grade 3 and above as Severe. […] The number (percentage) of subjects who experienced an AE during escalation and fixed dosing periods were summarized by dose level and overall for each stage. The denominator for calculating the percentages were based on the number of subjects ever exposed to each dose and overall.

[6] = 150 mg daily taken in the morning

CC(C)[C@@H](CC[C@@H](C)[C@H]1CC[C@H]2[C@@H]3[C@H](O)C[C@H]4C[C@@H](NCCCNCCCCN)CC[C@]4(C)[C@H]3CC[C@]12C)OS(=O)(=O)O [squalamine]
effect on sleep or constipation ([1]; 100 mg every other day at bedtime): no effect | time to fall asleep (I-button) ([1]; 100 mg given at night, FIG. 8A): 2.5 h | total sleep per night (I-button) ([1]; 100 mg given at night, FIG. 8A): 3 h | Delay ([1]; 125 mg switch, days 114-118): 45 min | Fragments awake ([1]; 125 mg switch, days 114-118): 60 min | Total hrs sleep ([1]; 125 mg switch, days 114-118): 7.5 h and 6.5 h and 8.0 h | total hours of sleep (I-button) ([1]; 150 mg): 4 to 5 h | Total hrs sleep ([1]; 150 mg daily am dose, Mean row covers all on-treatment days (pre mean 6.2)): 6.0 h | Fragments awake ([1]; 150 mg daily am dose, Mean row covers all on-treatment days (pre mean 90)): 120 min | effect on sleep or constipation ([1]; 150 mg daily at bedtime): without effect | arms and legs thrashing in the night [1, 6]: stopped thrashing | bowels [1, 6]: regularized almost immediately | delay in sleep onset (I-button) ([1]; 150 mg, FIG. 8C): 1 h | delay in sleep onset (I-button) ([1]; 150 mg, FIG. 8D): 0.5 h | Sleep efficiency ([1]; On treatment (Pre-treatment 74)): 82% | Fragments awake during night ([1]; On treatment (Pre-treatment 90)): 56 min | Delay in falling asleep ([1]; On treatment (Pre-treatment 146)): 60 min | diurnal rhythm (I-button, periodogram, FIG. 12) ([1]; several months into treatment): clearly been restored | number of discharges stimulated by a single electrical impulse (IPAN excitability) [2]: 8.8 | persistence of increased firing rate [3]: at least 20 minutes | vagal afferent firing frequency relative to the initial rate ([3]; within a few minutes): 3 fold

CC(C)[C@@H](CC[C@@H](C)[C@H]1CC[C@H]2[C@@H]3[C@H](O)C[C@H]4C[C@@H](NCCCNCCCCN)CC[C@]4(C)[C@H]3CC[C@]12C)OS(=O)(=O)O (single isomer, unassigned; ent-01) [ENT-01]
solubility in water ([4]; neutral pH): weakly soluble | solubility in water ([4]; pH<3.5 (the pH of gastric fluid)): readily dissolves | AEs confined to the GI tract ([5]; Stage 2): 63% | Diarrhea, patients ([5]; Stage 2, 15/34): 44% | nausea, patients ([5]; Stage 2, 18/34): 52.9% | Abdominal pain, Mild ([5]; Stage 2, 34 dosed): 4(11.7) n, % | Abdominal pain, Moderate ([5]; Stage 2, 34 dosed): 2(5.8) n, % | Blood in urine, Mild ([5]; Stage 2, 34 dosed): 0 n, % | Blood in urine, Moderate ([5]; Stage 2, 34 dosed): 0 n, % | Diarrhea, Mild ([5]; Stage 2, 34 dosed): 12(35) n, % | Diarrhea, Moderate ([5]; Stage 2, 34 dosed): 2(5.8) n, % | Diarrhea, Severe ([5]; Stage 2, 34 dosed): 1(2.9) n, % | Difficulty falling asleep, Mild ([5]; Stage 2, 34 dosed): 1(3) n, % | Difficulty falling asleep, Moderate ([5]; Stage 2, 34 dosed): 0 n, % | Dizziness, Mild ([5]; Stage 2, 34 dosed): 7(20.5) n, % | Dizziness, Moderate ([5]; Stage 2, 34 dosed): 1(2.9) n, % | Flatulence, Mild ([5]; Stage 2, 34 dosed): 1(3) n, % | Flatulence, Moderate ([5]; Stage 2, 34 dosed): 0 n, % | Headache, Mild ([5]; Stage 2, 34 dosed): 3(8.8) n, % | Headache, Moderate ([5]; Stage 2, 34 dosed): 0 n, % | Increased urinary frequency, Mild ([5]; Stage 2, 34 dosed): 2(5.8) n, % | Increased urinary frequency, Moderate ([5]; Stage 2, 34 dosed): 0 n, % | Loss of appetite, Mild ([5]; Stage 2, 34 dosed): 0 n, % | Loss of appetite, Moderate ([5]; Stage 2, 34 dosed): 0 n, % | Nausea, Mild ([5]; Stage 2, 34 dosed): 18(52) n, % | Nausea, Moderate ([5]; Stage 2, 34 dosed): 1(2.9) n, % | Skin lesions-rash, Mild ([5]; Stage 2, 34 dosed): 3(8.8) n, % | Skin lesions-rash, Moderate ([5]; Stage 2, 34 dosed): 0 n, % | Urinary retention, Mild ([5]; Stage 2, 34 dosed): 1(3) n, % | Urinary retention, Moderate ([5]; Stage 2, 34 dosed): 0 n, % | Vomiting, Mild ([5]; Stage 2, 34 dosed): 2(5.8) n, % | Vomiting, Moderate ([5]; Stage 2, 34 dosed): 0 n, % | Worsening acid reflux, Mild ([5]; Stage 2, 34 dosed): 4(11.7) n, % | Worsening acid reflux, Moderate ([5]; Stage 2, 34 dosed): 0 n, % | Worsening hemorrhoid, Mild ([5]; Stage 2, 34 dosed): 1(3) n, % | Worsening hemorrhoid, Moderate ([5]; Stage 2, 34 dosed): 0 n, % | Common adverse events by dose: Diarrhea ([5]; Stage 2, dose 75 mg): 7 | Common adverse events by dose: Nausea ([5]; Stage 2, dose 75 mg): 3 | Common adverse events by dose: Dizziness ([5]; Stage 2, dose 75 mg): 8 | Common adverse events by dose: Diarrhea ([5]; Stage 2, dose 100 mg): 10 | Common adverse events by dose: Nausea ([5]; Stage 2, dose 100 mg): 12 | Common adverse events by dose: Dizziness ([5]; Stage 2, dose 100 mg): 7 | Common adverse events by dose: Diarrhea ([5]; Stage 2, dose 125 mg): 3 | Common adverse events by dose: Nausea ([5]; Stage 2, dose 125 mg): 4 | Common adverse events by dose: Dizziness ([5]; Stage 2, dose 125 mg): 8 | Common adverse events by dose: Diarrhea ([5]; Stage 2, dose 150 mg): 2 | Common adverse events by dose: Nausea ([5]; Stage 2, dose 150 mg): 11 | Common adverse events by dose: Dizziness ([5]; Stage 2, dose 150 mg): 2 | Common adverse events by dose: Diarrhea ([5]; Stage 2, dose 175 mg): 1 | Common adverse events by dose: Nausea ([5]; Stage 2, dose 175 mg): 12 | Common adverse events by dose: Dizziness ([5]; Stage 2, dose 175 mg): 0 | Common adverse events by dose: Diarrhea ([5]; Stage 2, dose 200 mg): 2 | Common adverse events by dose: Nausea ([5]; Stage 2, dose 200 mg): 6 | Common adverse events by dose: Diarrhea ([5]; Stage 2, dose 225 mg): 3 | Common adverse events by dose: Nausea ([5]; Stage 2, dose 225 mg): 1 | Common adverse events by dose: Diarrhea ([5]; Stage 2, dose 250 mg): 2 | Lower GI bleed, Severe ([5]; Stage 2, Unrelated to ENT-01 (diverticulosis, polyp, aspirin, Plavix, naproxen)): 1(2.5) n, %

— patent publication US11083735B2, “Methods for treating sleep disorders, sleep disturbances, and related symptoms using aminosterol compositions” (Enterin, Inc., priority 2017, dated 2021)
